{"source": "paper PMC2914685", "about": "(Analytical biochemistry, 2010)", "molecules": {"B1": {"name": "TOP1-FITC (peptide)", "peptide": "APAFPPPSPP", "modifications": "also: FITC label, position not given here"}}, "key": {"Abl SH3 domain [1]": {"molecular_target": "T1, Abl SH3 domain (Homo sapiens, UniProt P00519)", "T1 sequence (P00519 61-121 limits assumed)": "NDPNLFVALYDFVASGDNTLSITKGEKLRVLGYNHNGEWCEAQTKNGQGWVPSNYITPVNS", "settings": "computationally predicted from the human proteome; ref [30]; [31] (Personal communication); cited from earlier work"}, "Abl SH3 domain [2]": {"molecular_target": "T1, Abl SH3 domain", "assay": "Tetracycline repressor-based mammalian two-hybrid assay", "assay_type": "cell-based", "settings": "HEK 293 cells, 48 hours post-transfection, fluorescence microscopy, Figure 2"}, "Abl SH3 domain (SH3-His)": {"tested_on": "Abl SH3 domain (SH3-His)", "assay": "Abl SH3 domain Western blot-type detection", "assay_type": "binding, human", "settings": "fluorescence under UV 365 nm, estimated, data not shown"}, "SH3-His": {"molecular_target": "SH3-His (human, UniProt P00519 61-121)", "sequence (P00519 61-121)": "as the sequence (P00519 61-121 limits assumed) above", "assay": "fluorescence polarisation"}}, "note": "No end group written: not given here."}
{"molecule": "AAAMQKPSLP [BOT1]", "values": [{"measurement": "predicted binding to Abl SH3 domain", "setting": "Abl SH3 domain [1]", "result": "non-binding peptide"}]}
{"molecule": "APAFPPPSPP [TOP1]", "values": [{"measurement": "interaction with Abl SH3 domain in vivo (AcGFP expression)", "setting": "Abl SH3 domain [2]", "result": "positive interaction"}, {"measurement": "predicted binding to Abl SH3 domain", "setting": "Abl SH3 domain [1]", "result": "binding peptide"}]}
{"molecule": "MGAGAPAFPPPSPP@EF-(GFP)-His6 [TOP1-DOPA-GFP]", "values": [{"measurement": "lowest limit of detection of SH3-His", "setting": "Abl SH3 domain (SH3-His)", "result": "about 0.5 μg"}]}
{"molecule": "TetR-BOT1: TetR with dimerization domain replaced with BOT1 (AAAMQKPSLP; also: insert only, fused into TetR protein)", "values": [{"measurement": "interaction with Abl SH3 domain in vivo (AcGFP expression)", "setting": "Abl SH3 domain [2]", "result": "does not bind to TetR-SH3"}]}
{"molecule": "B1", "values": [{"measurement": "Kd", "setting": "SH3-His", "result": "16 ± 1", "unit": "µM"}]}
